Residues, ends and D or L forms follow the SMILES beside them. *: point of attachment. Succinyl(4-O-cholesteryl) = CC(C)CCC[C@@H](C)[C@H]1CC[C@H]2[C@@H]3CC=C4C[C@@H](OC(=O)CCC(=O)*)CC[C@]4(C)[C@H]3CC[C@]12C
How the values were obtained:
[1] = tested on: replicative HIV-1 strain JR-CSF; details: for IC50: replicative strain JR-CSF, 48 h
[2] = In vitro cytotoxicity (CCK-8), MDCK cells; type: cell-based; details: dog, CCK-8, 48 hours
Description: (§1) The in vitro cytotoxicity was detected by using a CCK-8 cell proliferation/toxicity assay kit (manufacturer: Abbkine, Cat. No.: KTC 011001). […] By using GraphPad Prism software, the inhibition rate curve was fitted and the half-maximal cytotoxic concentration (CC50) of the drug was calculated.

[3] = tested on: HIV-1 strain NL4-3 pseudovirus; details: for IC50: strain NL4-3 pseudovirus
[4] = In vitro cytotoxicity (CCK-8), 293T/ACE2 cells; type: cell-based; details: human, CCK-8, 48 hours
Description: as §1

[5] = tested on: T20-resistant mutant strains (HIV-1 strain NL4-3); details: for IC50: T20-resistant mutant strains ( strain NL4-3, 48 h); for inhibitory activity against 12 drug-resistant mutant strains higher than that of the LP-98: versus LP-98
[6] = Circular dichroism of lipopeptide alone; type: physicochemical; details: CD, 10 µM in PBS pH 7.2
[7] = In vitro cytotoxicity (CCK-8), Hep-2 cells; type: cell-based; details: human, CCK-8, 48 hours
Description: as §1

[8] = tested on: H7N9; details: 48 h
[9] = tested on: seven test cells; assay: In vitro cytotoxicity (CCK-8), average over seven test cells; type: cell-based; details: CC50/IC50
Description: as §1

[10] = Human serum stability experiment (antiviral activity after incubation); details: 20% human serum, 37 °C, 0 to 240 minutes; NL4-3 pseudovirus, TZM-bl cells
[11] = tested on: HIV-1 envelope protein (Env); assay: Env-mediated cell-cell fusion inhibition (DSP reporter system); details: for IC50: read-out: average IC50 value, membrane fusion of 12 viruses, average over Env of 12 representative pandemic HIV-1 strains; for inhibitory activity against membrane fusions of 12 viruses higher than that of the T20: versus T20
[12] = tested on: EBOV; details: 48 h
[13] = biological target: N44 (Human immunodeficiency virus type 1 group M subtype B, UniProt P04578); assay: Circular dichroism of lipopeptide complex with target sequence N44; details: CD; for Tm value of the mixture with N44: [θ]222, 20-98 °C at 2 °C/min; for α-helix content of the mixture with N44: lipopeptide and N44 each 10 µM in PBS pH 7.2
Chain of N44 (P04578 538-581): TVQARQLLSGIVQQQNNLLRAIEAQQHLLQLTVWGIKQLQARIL

[14] = tested on: HIV-1 strain JRFL pseudovirus; details: for IC50: strain JRFL pseudovirus
[15] = In vitro cytotoxicity (CCK-8), HEK293T cells; type: cell-based; details: human, CCK-8, 48 hours
Description: as §1

[16] = tested on: representative pandemic HIV-1 strain pseudoviruses; details: for IC50: representative pandemic strain pseudoviruses, 48 h; for inhibitory activity against 12 pseudoviruses higher than that of the T20: versus T20
[17] = tested on: MARV; details: 48 h
[18] = tested on: HIV-1 strain SG3.1 living virus; details: for IC50: strain SG3.1 living virus
[19] = tested on: VSV; details: 48 h
[20] = In vitro cytotoxicity (CCK-8), Huh-7 cells; type: cell-based; details: human, CCK-8, 48 hours
Description: as §1

[21] = In vitro cytotoxicity (CCK-8), TZM-bl cells; type: cell-based; details: human, CCK-8, 48 hours
Description: as §1

[22] = tested on: RABV; details: 48 h
[23] = tested on: protease K, trypsin, or α-chymotrypsin
[24] = In vitro cytotoxicity (CCK-8), MT-4 cells; type: cell-based; details: human, CCK-8, 48 hours
Description: as §1

[25] = Temperature stability experiment (antiviral activity after storage); details: 300 µM aqueous solution, room temperature or 37 °C, various time periods; NL4-3 pseudovirus, TZM-bl cells
[26] = tested on: MERS-CoV; details: 48 h
[27] = LP-124 versus LP-122, LP-125 versus LP-123

Compound | IC50 [1] | IC50 [3] | IC50 [5] | inhibitory activity against 12 drug-resistant mutant strains higher than that of the LP-98 [5] | α-helix content, lipopeptide alone [6] | IC50 [11] | inhibitory activity against membrane fusions of 12 viruses higher than that of the T20 [11] | Tm value of the mixture with N44 [13] | α-helix content of the mixture with N44 [13] | IC50 [14] | IC50 [16] | inhibitory activity against 12 pseudoviruses higher than that of the T20 [16] | IC50 [18] | further results
CC[C@H](C)[C@H](NC(=O)[C@H](CCCCN)NC(=O)[C@H](CCCCN)NC(=O)[C@H](CCC(=O)O)NC(=O)[C@H](CC(C)C)NC(=O)[C@H](CCC(=O)O)NC(=O)[C@H](CCC(=O)O)NC(=O)[C@H](CC(C)C)NC(=O)[C@H](CCC(=O)O)NC(=O)[C@H](CCCCN)NC(=O)[C@H](CCC(=O)O)NC(=O)[C@H](Cc1ccc(O)cc1)NC(=O)[C@H](CCC(=O)O)NC(=O)[C@H](CCC(=O)O)NC(=O)[C@H](Cc1ccc(O)cc1)NC(=O)[C@H](CCC(=O)O)NC(C)=O)C(=O)N[C@@H](CCC(=O)O)C(=O)N[C@@H](CCC(=O)O)C(=O)N[C@@H](CC(C)C)C(=O)N[C@@H](CC(C)C)C(=O)N[C@@H](CCCCN)C(=O)N[C@@H](CCCCN)C(=O)N[C@@H](C)C(=O)N[C@@H](CCC(=O)O)C(=O)N[C@@H](CCC(=O)O)C(=O)N[C@@H](CCC(N)=O)C(=O)N[C@@H](CCC(N)=O)C(=O)N[C@@H](CCCCN)C(=O)N[C@@H](CCCCN)C(=O)N[C@@H](CC(N)=O)C(=O)N[C@@H](CCC(=O)O)C(=O)N[C@@H](C)C(=O)N[C@@H](C)C(=O)N[C@@H](C)C(=O)N[C@@H](CCCCN)C(=O)N[C@@H](CCCCNC(=O)CCC(=O)O[C@H]1CC[C@@]2(C)C(=CC[C@H]3[C@@H]4CC[C@H]([C@H](C)CCCC(C)C)[C@@]4(C)CC[C@@H]32)C1)C(N)=O [LP-127] (Ac-EYEEYEKELEELEKKIEELLKKAEEQQKKNEAAAKK(Succinyl(4-O-cholesteryl))-NH2) | 0.0104 nM | 0.00501 nM | 0.00702 nM | 379 folds | 57% | 0.00497 nM | 2256 folds | 92 °C | 68% | 0.00563 nM | 0.00489 nM | 4101 folds |  | inhibitory activity higher than the T20, JR-CSF ([1]; TZM-bl cells, versus T20): 539 folds; CC50 at 48 h [2]: 12900 nM; CC50 at 48 h [4]: 14400 nM; CC50 at 48 h [7]: 16500 nM; IC50 [8]: 415 nM; therapeutic selective index (SI) [9]: very high; change in antiviral activity after treatment with human serum [10]: no significant change; IC50 [12]: 61.7 nM; CC50 at 48 h [15]: 9070 nM; IC50 [17]: 144 nM; inhibitory activity higher than that of the T20, SG3.1 ([18]; TZM-bl cells, versus T20): 1427 folds; IC50 [19]: 1510 nM; CC50 at 48 h [20]: 31300 nM; CC50 at 48 h [21]: 10200 nM; IC50 [22]: 1730 nM; change in antiviral activity after treatment with three proteases [23]: no significant change; CC50 at 48 h [24]: 15400 nM; change in antiviral activity after treatment at different temperatures [25]: no significant change; IC50 [26]: 383 nM
CC[C@H](C)[C@H](NC(=O)[C@H](CCCCN)NC(=O)[C@H](CCCCN)NC(=O)[C@H](CCC(=O)O)NC(=O)[C@H](Cc1c[nH]c2ccccc12)NC(=O)[C@H](CCC(=O)O)NC(=O)[C@H](CCC(=O)O)NC(=O)[C@H](Cc1c[nH]c2ccccc12)NC(=O)[C@@H](NC(C)=O)[C@@H](C)O)C(=O)N[C@@H](CCC(=O)O)C(=O)N[C@@H](CCC(=O)O)C(=O)N[C@@H](CC(C)C)C(=O)N[C@@H](CCC(=O)O)C(=O)N[C@@H](CCCCN)C(=O)N[C@@H](CCCCN)C(=O)N[C@H](C(=O)N[C@@H](CCC(=O)O)C(=O)N[C@@H](CCC(=O)O)C(=O)N[C@@H](CC(C)C)C(=O)N[C@@H](CC(C)C)C(=O)N[C@@H](CCCCN)C(=O)N[C@@H](CCCCN)C(=O)N[C@@H](C)C(=O)N[C@@H](CCC(=O)O)C(=O)N[C@@H](CCC(=O)O)C(=O)N[C@@H](CCC(N)=O)C(=O)N[C@@H](CCC(N)=O)C(=O)N[C@@H](CCCCN)C(=O)N[C@@H](CCCCN)C(=O)N[C@@H](CC(N)=O)C(=O)N[C@@H](CCC(=O)O)C(=O)N[C@@H](C)C(=O)N[C@@H](C)C(=O)N[C@@H](C)C(=O)N[C@@H](CCCCN)C(=O)N[C@@H](CCCCNC(=O)CCC(=O)O[C@H]1CC[C@@]2(C)C(=CC[C@H]3[C@@H]4CC[C@H]([C@H](C)CCCC(C)C)[C@@]4(C)CC[C@@H]32)C1)C(N)=O)[C@@H](C)CC [LP-123] (Ac-TWEEWEKKIEELEKKIEELLKKAEEQQKKNEAAAKK(Succinyl(4-O-cholesteryl))-NH2) |  | 0.0181 nM | 0.0555 nM | 48 folds | 56% | 0.024 nM | 466 folds | > 98 °C | 79% | 0.0146 nM | 0.0274 nM | 732 folds | 0.00368 nM | 
CC[C@H](C)[C@H](NC(=O)[C@H](CCCCN)NC(=O)[C@H](CCCCN)NC(=O)[C@H](CCC(=O)O)NC(=O)[C@H](Cc1ccc(O)cc1)NC(=O)[C@H](CCC(=O)O)NC(=O)[C@H](CCC(=O)O)NC(=O)[C@H](Cc1ccc(O)cc1)NC(=O)[C@@H](NC(C)=O)[C@@H](C)O)C(=O)N[C@@H](CCC(=O)O)C(=O)N[C@@H](CCC(=O)O)C(=O)N[C@@H](CC(C)C)C(=O)N[C@@H](CCC(=O)O)C(=O)N[C@@H](CCCCN)C(=O)N[C@@H](CCCCN)C(=O)N[C@H](C(=O)N[C@@H](CCC(=O)O)C(=O)N[C@@H](CCC(=O)O)C(=O)N[C@@H](CC(C)C)C(=O)N[C@@H](CC(C)C)C(=O)N[C@@H](CCCCN)C(=O)N[C@@H](CCCCN)C(=O)N[C@@H](C)C(=O)N[C@@H](CCC(=O)O)C(=O)N[C@@H](CCC(=O)O)C(=O)N[C@@H](CCC(N)=O)C(=O)N[C@@H](CCC(N)=O)C(=O)N[C@@H](CCCCN)C(=O)N[C@@H](CCCCN)C(=O)N[C@@H](CC(N)=O)C(=O)N[C@@H](CCC(=O)O)C(=O)N[C@@H](C)C(=O)N[C@@H](C)C(=O)N[C@@H](C)C(=O)N[C@@H](CCCCN)C(=O)N[C@@H](CCCCNC(=O)CCC(=O)O[C@H]1CC[C@@]2(C)C(=CC[C@H]3[C@@H]4CC[C@H]([C@H](C)CCCC(C)C)[C@@]4(C)CC[C@@H]32)C1)C(N)=O)[C@@H](C)CC [LP-125] (Ac-TYEEYEKKIEELEKKIEELLKKAEEQQKKNEAAAKK(Succinyl(4-O-cholesteryl))-NH2) |  | 0.00343 nM | 0.00629 nM | 423 folds | 78% | 0.0119 nM | 942 folds | 91 °C | 89% | 0.00578 nM | 0.00422 nM | 4752 folds | 0.00111 nM | activity increased as compared to its template, NL4-3 pseudovirus [3, 27]: about 5 folds; activity increased as compared to its template, JRFL pseudovirus [14, 27]: ~3 folds; activity increased as compared to its template, SG3.1 living virus [18, 27]: ~3 folds
Enfuvirtide | 5.6 nM |  |  |  |  | 11.2 nM |  |  |  |  | 20.1 nM |  | 2.91 nM | 

— EP4685153A1 (priority 2023, dated 2024)
